A word on the melting point: it is the temperature, or range, at which the solid turns liquid. Regarding `CC(C)(C)OC(=O)N1CC2CN(Cc3ccccc3)CC(C1)O2`, the melting point is 100 to 102 °C. The molecule `C=CCN1c2ccccc2-c2noc3c2C1CCC3` (stereo not given) had a melting point of 114 to 117 °C. `CCN(CC)C(=O)C(=NNc1ccccc1)C(C)=O` had a melting point of 63 to 65 °C. As for `CCCCCCCCCCCC(=O)NCCCCCC(=O)OO`, the melting point lay within 70 to 75 °C. For the molecule `COc1cc(OC)c(C2CCN(C)CC2=O)c(OC)c1` (single isomer, unassigned; (+)), the melting point was 110 to 112 °C. Consider `Cc1ccccc1C(CCC(=O)O)Oc1cc(OCc2ccsc2)ccc1C#N` (stereo not given), for which the melting point came out at 143 °C. The molecule `CCC(C(=O)O)N(C(=O)c1cn(-c2cc(C(F)(F)F)ccc2Cl)nc1C)c1ccc(OCC(C)(C)C)c(C#N)c1` (stereo not given) yielded a melting point of 134 to 135 °C. `Cn1cc(C(=O)NCc2ccc(Cl)cc2)c(=O)c2cc(CC3CCOCC3)cc(C#CCO)c21` came in with a melting point of 166 to 168 °C. The molecule `COc1cc(Nc2c(C#N)cnc3cc(OCCCN4CCN(C)CC4)c(OC)cc23)c(Cl)cc1Cl` had a melting point of 116 to 120 °C. In the case of `O=c1cc(NCCN2CCN(c3cc(Cl)cc4c3OCCO4)CC2)cn[nH]1` it was 115 to 117 °C. `N#Cc1cc(-c2ccncc2)cnc1Cl`: the melting point was in the range of 219 to 223 °C. The molecule `O=C(NCc1cccs1)n1cc(F)c(=O)[nH]c1=O` came in with a melting point of 131 to 132 °C.

Molecule `N=C(NCc1ccc(Cl)cc1)Nc1cccc(C(F)(F)F)c1` had a melting point of 103 to 105 °C. Next, `COC(=O)C(C)(C)C(O)CCOc1cc(C)ccc1C` (stereo not given): 40.5 to 41 °C. Molecule `O=C(Cn1c(-c2ccc(Br)cc2)nc2cccnc21)NCCN1CCCCC1` displayed a melting point of 178 to 179 °C. Turning to `CC(=Nc1ccc2c(c1)C(=O)c1ccc(N=C(C)N3CCCCC3)cc1C2=O)N1CCCCC1`, the melting point lay within 233 to 235 °C. In the case of `O=C(c1ccccc1)C(Cc1ccccc1)C(=O)c1ccccc1` it was 102 to 103 °C; in that of `Cc1ncc(CN2CCc3ccc(OCc4ccccc4)cc3C2)c(N)n1`, 151 to 153 °C. Next, `Cc1ccccc1Cn1cccc1C(=O)CC(=O)C(=O)O`: 176 to 178 °C. `CCOC1CC(n2cc(CC)c(=O)[nH]c2=O)OC1CNC(=O)Cc1c(Cl)cccc1Cl` (stereo not given) gave a melting point of 249 to 250 °C. On to `Cn1cc([N+](=O)[O-])nc1C(Cl)Cl`, for which the melting point stood at 153 °C. For `Cn1ccnc1C=NO`, the melting point was in the range of 170 to 172 °C. In the case of `O=c1cc(O)nc2sc(CCC3CCCCC3)nn12` it was 215 to 219 °C; in that of `COc1cc2c(cc1OC)C1(O)c3ccccc3CCN1C2=O` (stereo not given), 220 °C. The molecule `Cc1cccnc1-c1ccccc1Nc1nc(Nc2ccc3c(c2)C(C)(C)CCC(=O)N3)ncc1Cl` displayed a melting point of 130 to 135 °C. On to `NC(=O)CC(C(N)=O)(c1ccc(F)cc1)c1ccc(F)cc1`, for which the melting point fell in the range of 192 to 193 °C. Molecule `CC(C)(C)C(NC(=O)c1ccc(Cl)cc1)NS(=O)(=O)Nc1cccnc1` (stereo not given) displayed a melting point of 166 to 167 °C. `CCCn1c2c(ccc1=O)C(NCCc1ccc(Cl)c(Cl)c1)CCC2` (stereo not given): the melting point lay within 105 to 107 °C. In the case of `COc1ccc(-c2cc(=O)c3c(OC)cc(OC)cc3o2)cc1` it was 156 °C; in that of `CC1(C)OCC(CBr)(CBr)CO1`, 56 to 58 °C. The molecule `CCOc1cc2cc(COC(C)=O)c(COC(C)=O)c(-c3ccncc3)c2cc1OCC` displayed a melting point of 115 to 116 °C. With `COC(OC)c1ccc(C=C2C(=O)C3(C)CCC2C3(C)C)cc1` (stereo not given), the melting point turned out to be 98 °C. Consider `CCOC(=O)c1nn(-c2cccc(C(F)(F)F)c2)c2c1CCCC2`, for which the melting point lay within 77 to 78 °C. `COC(=O)c1ccc2c(=O)n(CC(C)C)c(CNC(=O)OC(C)(C)C)c(-c3ccccc3F)c2c1` yielded a melting point of 180 to 181 °C. For `Cc1ccc(C=CC(=O)C=Cc2ccc([N+](=O)[O-])cc2)cc1`, the melting point is 182 to 184 °C.

The record behind these values is a melting point compilation (Tetko et al.; mined from patent text by program, amines drawn as free bases though some values may be those of a salt).
